Earlier results, collected in US20080260818A1, “Controlled Absorption of Statins in the Intestine” (DEXCEL PHARMA TECHNOLOGIES LTD., priority 2005, published 2008).

Key:
HMG-CoA reductase = biological target: T1, HMG-CoA reductase (Homo sapiens, UniProt P04035); details: considering the beta-hydroxy acid form as the drug
T1 sequence (P04035 1-888): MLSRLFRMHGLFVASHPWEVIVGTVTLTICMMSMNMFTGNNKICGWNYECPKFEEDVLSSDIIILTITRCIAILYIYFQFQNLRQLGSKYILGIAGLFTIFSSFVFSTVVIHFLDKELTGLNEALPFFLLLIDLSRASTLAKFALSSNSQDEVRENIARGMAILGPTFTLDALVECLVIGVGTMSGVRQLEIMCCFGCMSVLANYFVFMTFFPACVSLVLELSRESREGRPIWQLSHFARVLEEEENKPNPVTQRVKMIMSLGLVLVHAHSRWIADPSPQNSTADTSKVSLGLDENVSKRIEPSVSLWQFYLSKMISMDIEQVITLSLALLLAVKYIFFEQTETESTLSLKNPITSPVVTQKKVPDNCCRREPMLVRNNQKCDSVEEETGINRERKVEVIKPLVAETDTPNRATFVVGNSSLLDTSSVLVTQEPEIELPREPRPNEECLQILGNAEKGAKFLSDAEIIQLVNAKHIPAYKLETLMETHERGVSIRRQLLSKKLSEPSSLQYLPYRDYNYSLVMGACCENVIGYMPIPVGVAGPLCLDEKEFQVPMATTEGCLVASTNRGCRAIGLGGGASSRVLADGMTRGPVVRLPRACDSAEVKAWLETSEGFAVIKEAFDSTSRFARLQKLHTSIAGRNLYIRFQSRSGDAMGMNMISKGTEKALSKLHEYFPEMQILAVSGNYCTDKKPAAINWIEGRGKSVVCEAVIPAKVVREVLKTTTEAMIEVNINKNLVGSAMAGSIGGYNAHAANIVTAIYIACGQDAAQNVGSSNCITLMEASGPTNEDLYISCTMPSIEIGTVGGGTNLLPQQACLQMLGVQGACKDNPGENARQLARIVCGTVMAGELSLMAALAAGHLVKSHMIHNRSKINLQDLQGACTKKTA

[1] = test system: plasma proteins, primarily albumin; details: Simvastatin and its active acid forms

Row | SMILES | HMG-CoA reductase activity retained (HMG-CoA reductase) | bound to plasma proteins, primarily to albumin [1]
1 | CCC(C)(C)C(=O)OC1CC(CO)C=C2C=CC(C)C(CCC3CC(O)CC(=O)O3)C21 (stereo not drawn) [6-beta-hydroxymethyl] | approximately 40% | 
2 | CCC(C)(C)C(=O)OC1CC(C)(O)C=C2C=CC(C)C(CCC3CC(O)CC(=O)O3)C21 (stereo not drawn) [6-beta-hydroxy simvastatin] | ~50% | 
3 | CCC(C)(C)C(=O)O[C@H]1C[C@@H](C)C=C2C=C[C@H](C)[C@H](CC[C@@H]3C[C@@H](O)CC(=O)O3)[C@H]21 [simvastatin] |  | more than 95%
